Assay [1] has as its target T1, EP300-BRD (Homo sapiens, UniProt Q09472).
T1 construct: T7 phage display fusion with DNA tag for qPCR; purchased Eurofins Discovery (BROMOscan service); host or cells: E. coli infected with T7 phage
T1 sequence (Q09472 1049-1156 limits assumed): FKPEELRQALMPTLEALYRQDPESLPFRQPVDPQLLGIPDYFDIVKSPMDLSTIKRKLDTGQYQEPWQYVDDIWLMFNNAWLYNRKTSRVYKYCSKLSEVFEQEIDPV
The experiment in a line: BROMOscan ligand binding site-directed competition assay, EP300. The conditions noted are these: for Kd: BROMOscan; for LE EP300 (ligand efficiency): LE = 1.4(pIC50)/N. On the procedure:
(§1) 2. Methods and General Procedures […]
(§2) KD values were determined using BROMOscan™ technology, carried out by Eurofins […]
(§3) Discovery according to their standard protocol. Briefly E. coli were infected with T7 phage […]
(§4) strains displaying bromodomains and bromodomain protein was subsequently purified […]
(§5) through lysis, centrifugation and filtration. Affinity resins were generated by incubation of […]
(§6) streptavidin-coated magnetic beads with biotinylated small molecules or acetylated […]
(§7) peptide ligands. Binding reactions were assembled by combining the bromodomains and […]
(§8) liganded affinity beads in binding buffer (17 % SeaBlock, 0.33x PBS, 0.04 % Tween 20, […]
(§9) 0.02 % BSA, 0.004 % sodium azide and 7.4 mM DTT) with compounds (11-point, 3-fold […]
(§10) dilution series) added to give a final DMSO concentration of 0.09 %. Assay plates were […]
(§11) incubated for 1 h, prior to washing and elution of beads. The bromodomain concentration […]
(§12) in the eluates was measured by qPCR of the DNA tag on the bromodomain.
(§13) KD values were calculated with a standard dose-response curve fitted using the Hill […]
(§14) Response = Background + Signal − Background […]
(§15) The Hill Slope was set to -1 and curves fitted using a non-linear least square fit with the Levenberg-Marquardt algorithm.
(§16) Ligand efficiency (LE) was calculated as follows: LE = 1.4(pIC50)/N

Assay [2] has as its target T2, CBP (Homo sapiens, UniProt Q92793).
T2 construct: quantification of CBP and EP300 levels by Western blotting following 16 h treatment of LP1 cells; endogenous in cells; host or cells: LP1 cells
The experiment in a line: Quantification of CBP degradation by Western blotting in LP1 cells. The assay is classed as cell-based. The conditions noted are these: 16 h, Western blot; for % remaining CBP: 5 μM compound. On the procedure:
(§17) LP1 cells were cultured in DMEM (Gibco, 41966-029) supplemented with 15 % FBS (Sigma, F9665); MM1S and LNCaP cells in RPMI 1640 ATCC modification (Gibco, […]
(§18) DMEM/F12 (Gibco, 11320074) supplemented with 1 % non-essential amino acids […]
(§19) additionally supplemented with 1 % penicillin/streptomycin (Gibco, 15070-063), and cells maintained in a humidified incubator with 5 % CO2 at 37 °C. The identity of all lines (except for MM1S which were recently purchased from ATCC) was authenticated by STR profiling (performed by Microsynth).
(§20) Quantification of CBP/EP300 degradation by Western blotting
(§21) LP1 cells plated on 6 well plates were treated with the stated compounds at a final concentration of 0.1 % DMSO for the stated time. Cells were harvested on ice, washed in PBS and lysed in RIPA buffer (50 mM tris pH 7.5, 2 mM EDTA, 150 mM NaCl, 0.5 % sodium deoxycholate, 1 % Triton X100) supplemented with cOmplete ™ protease inhibitor cocktail (Roche). Protein concentrations were determined using the Pierce ™ BCA Protein Assay Kit (Thermo Scientific, 23227) and equal amounts were separated on 4-12 % ExpressPl us™ PAGE gels (GenScript, M41215). Proteins were transferred to PVDF membranes, the membranes were blocked with 5 % milk (Merk Millipore, 115363) in PBS-T and proteins were stained with the following antibodies at 4 °C overnight: CBP […]
(§22) BRD4 (Bethyl Laboratories, A301-985A50, diluted 1:2000) and vinculin (Invitrogen, 42H89L44, diluted 1:1000). For detection, membranes were incubated for 1 h at room temperature with HRP-conjugated secondary antibodies (Southern Biotech, anti-rabbit […]
(§23) SuperSignal™ West Pico PLUS Chemiluminescent Substrate (Thermo Scientific, 34580) and the Vilber Fusion-FX7 imager. Bands were quantified using ImageJ software and protein levels normalized to protein from DMSO treated cells run on the same membrane. For dose response curves, data was fitted using a four -parameter dose-response curve in GraphPad Prism v. 9.5.1, where the top is fixed at 100 %. The DC50 was defined as the PROTAC concentration resulting in 50 % remaining protein. […]
On the technique in general: Immunoblotting shows a protein as a band on a membrane.

The target of assay [3] is T3, EP300 (Homo sapiens, UniProt Q09472).
T3 construct: quantification of CBP and EP300 levels by Western blotting following 16 h treatment of LP1 cells; endogenous in cells; host or cells: LP1 cells
Description: Quantification of EP300 degradation by Western blotting in LP1 cells. The assay is classed as cell-based. The following applies: 16 h, Western blot; for % remaining EP300: 5 μM compound. Here is the method:
as §17, §18, §19, §20, §21, §22, §23

The target in assay [4] is CRBN and CBP-BRD (Homo sapiens, UniProt Q92793+Q96SW2). Description: FluoPPI cellular ternary complex formation, CBP-BRD. The assay is classed as cell-based. The following applies: U2OS cells, 6 h.
Assay [5] concerns the target T4, CBP-BRD (Homo sapiens, UniProt Q92793). Description: BROMOscan ligand binding site-directed competition assay, CBP. The arrangement: T7 phage display fusion with DNA tag for qPCR; purchased Eurofins Discovery (BROMOscan service); host or cells: E. coli infected with T7 phage. The following applies: for Kd: BROMOscan; for LE CBP (ligand efficiency): LE = 1.4(pIC50)/N. On the procedure:
as §1, §2, §3, §4, §5, §6, §7, §8, §9, §10, §11, §12, §13, §14, §15, §16
Target sequence in this assay (Q92793 1085-1192 limits assumed): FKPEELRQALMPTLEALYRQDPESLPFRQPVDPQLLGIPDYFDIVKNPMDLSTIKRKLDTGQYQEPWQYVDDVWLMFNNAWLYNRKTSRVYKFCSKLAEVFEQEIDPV

Assay [6] has as its target T5, CBP-BRD:CRBN thalidomide binding domain ternary complex (Homo sapiens, UniProt Q92793+Q96SW2).
T5 construct: GST-CBP (human, residues 1081-1197); the C-terminus of CRBN (human, residues 318-442); His6 with TEV cleavage site (N, cleaved yes); made in house; host or cells: Rosetta (DE3) cells (E. coli)
Description: TR-FRET CBP-BRD:PROTAC:CRBN ternary complex formation. The conditions noted are these: CBP-BRD and CRBN-thalidomide binding domain labeled with TR-FRET pair. Here is the method: (PMSF), and 1 mM EDTA) and lysed by sonication. The lysates were clarified by centrifugation (18,000 rpm, 4 °C, 1 h).
For GST-CBP the soluble proteins were loaded onto a column packed with glutathione sepharose 4B (GE Healthcare) and subsequently eluted with 10 mM reduced glutathione in buffer containing 20 mM Tris-HCl pH 8.0, and 150 mM NaCl. Finally, a size exclusion step (HiLoad 16/600 Superdex 200 pg column from GE Healthcare) was used to further purify the protein in buffer containing 50 mM HEPES pH 7.5 and 150 mM NaCl. For His-CRBN and His-CRBN-Avi(biotin), the soluble fractions were loaded onto the HisTrap FF crude column (GE Healthcare) and washed with lysis buffer supplemented with 50 mM imidazole. The proteins were eluted with a buffer containing 250 mM imidazole, 100 mM Tris-HCl pH 8.0 and 500 mM NaCl. For His-CRBN-Avi(biotin) only, recombinant TEV protease was used to cleave the His6-tag during overnight dialysis at 4 °C against buffer containing 100 mM Tris-HCl pH 8.0 and 500 mM NaCl. The dialyzed sample was passed through the HisTrap FF crude column to remove His6-tagged TEV protease and uncleaved protein. […]
The maximal control contained no PROTAC, the blank contained no SK-20 and no PROTAC – these were replaced by the appropriate buffer. […] The samples were incubated for 3 h (20 °C, dark) and the signal was detected using the Infinite M1000 plate reader (Tecan). After excitation at 317 nm, emission at 620 and 665 nm was recorded. […]
were determined according to the following equation:
activity (%) = ΔF ∗ 100 = F−Fb ∗ 100 , where Ft is the TR-FRET signal in the absence of any compound (maximal control, 100 % activity), Fb the TR-FRET signal in the absence of the GST -CBP (blank, 0 % activity) and F the TR -FRET signal in the presence of the compound. Dose -response curves were plotted in GraphPad Prism 10.2.3 and fitted with nonlinear regression “log(inhibitor) vs. normalized response – variable slope”, from which IC 50 values were determined. […]
(In general: Time-resolved FRET reads energy transfer from a long-lived donor to a nearby acceptor.)

For assay [7], the target named is T4, CBP-BRD. The experiment in a line: TR-FRET competition with acetylated peptide binding to CBP-BRD, with and without CRBN (cooperativity). The arrangement: GST-CBP (human, residues 1081-1197); made in house; host or cells: Rosetta (DE3) cells (E. coli).
Assay [8] concerns the target CRBN and CBP catalytic core (Homo sapiens, UniProt Q92793+Q96SW2). Description: FluoPPI cellular ternary complex formation, CBP catalytic core. The class given is cell-based. The following applies: U2OS cells, 6 h.

Like-named read-outs stand apart in the source and are kept apart here.

T3 sequence (Q09472 whole entry): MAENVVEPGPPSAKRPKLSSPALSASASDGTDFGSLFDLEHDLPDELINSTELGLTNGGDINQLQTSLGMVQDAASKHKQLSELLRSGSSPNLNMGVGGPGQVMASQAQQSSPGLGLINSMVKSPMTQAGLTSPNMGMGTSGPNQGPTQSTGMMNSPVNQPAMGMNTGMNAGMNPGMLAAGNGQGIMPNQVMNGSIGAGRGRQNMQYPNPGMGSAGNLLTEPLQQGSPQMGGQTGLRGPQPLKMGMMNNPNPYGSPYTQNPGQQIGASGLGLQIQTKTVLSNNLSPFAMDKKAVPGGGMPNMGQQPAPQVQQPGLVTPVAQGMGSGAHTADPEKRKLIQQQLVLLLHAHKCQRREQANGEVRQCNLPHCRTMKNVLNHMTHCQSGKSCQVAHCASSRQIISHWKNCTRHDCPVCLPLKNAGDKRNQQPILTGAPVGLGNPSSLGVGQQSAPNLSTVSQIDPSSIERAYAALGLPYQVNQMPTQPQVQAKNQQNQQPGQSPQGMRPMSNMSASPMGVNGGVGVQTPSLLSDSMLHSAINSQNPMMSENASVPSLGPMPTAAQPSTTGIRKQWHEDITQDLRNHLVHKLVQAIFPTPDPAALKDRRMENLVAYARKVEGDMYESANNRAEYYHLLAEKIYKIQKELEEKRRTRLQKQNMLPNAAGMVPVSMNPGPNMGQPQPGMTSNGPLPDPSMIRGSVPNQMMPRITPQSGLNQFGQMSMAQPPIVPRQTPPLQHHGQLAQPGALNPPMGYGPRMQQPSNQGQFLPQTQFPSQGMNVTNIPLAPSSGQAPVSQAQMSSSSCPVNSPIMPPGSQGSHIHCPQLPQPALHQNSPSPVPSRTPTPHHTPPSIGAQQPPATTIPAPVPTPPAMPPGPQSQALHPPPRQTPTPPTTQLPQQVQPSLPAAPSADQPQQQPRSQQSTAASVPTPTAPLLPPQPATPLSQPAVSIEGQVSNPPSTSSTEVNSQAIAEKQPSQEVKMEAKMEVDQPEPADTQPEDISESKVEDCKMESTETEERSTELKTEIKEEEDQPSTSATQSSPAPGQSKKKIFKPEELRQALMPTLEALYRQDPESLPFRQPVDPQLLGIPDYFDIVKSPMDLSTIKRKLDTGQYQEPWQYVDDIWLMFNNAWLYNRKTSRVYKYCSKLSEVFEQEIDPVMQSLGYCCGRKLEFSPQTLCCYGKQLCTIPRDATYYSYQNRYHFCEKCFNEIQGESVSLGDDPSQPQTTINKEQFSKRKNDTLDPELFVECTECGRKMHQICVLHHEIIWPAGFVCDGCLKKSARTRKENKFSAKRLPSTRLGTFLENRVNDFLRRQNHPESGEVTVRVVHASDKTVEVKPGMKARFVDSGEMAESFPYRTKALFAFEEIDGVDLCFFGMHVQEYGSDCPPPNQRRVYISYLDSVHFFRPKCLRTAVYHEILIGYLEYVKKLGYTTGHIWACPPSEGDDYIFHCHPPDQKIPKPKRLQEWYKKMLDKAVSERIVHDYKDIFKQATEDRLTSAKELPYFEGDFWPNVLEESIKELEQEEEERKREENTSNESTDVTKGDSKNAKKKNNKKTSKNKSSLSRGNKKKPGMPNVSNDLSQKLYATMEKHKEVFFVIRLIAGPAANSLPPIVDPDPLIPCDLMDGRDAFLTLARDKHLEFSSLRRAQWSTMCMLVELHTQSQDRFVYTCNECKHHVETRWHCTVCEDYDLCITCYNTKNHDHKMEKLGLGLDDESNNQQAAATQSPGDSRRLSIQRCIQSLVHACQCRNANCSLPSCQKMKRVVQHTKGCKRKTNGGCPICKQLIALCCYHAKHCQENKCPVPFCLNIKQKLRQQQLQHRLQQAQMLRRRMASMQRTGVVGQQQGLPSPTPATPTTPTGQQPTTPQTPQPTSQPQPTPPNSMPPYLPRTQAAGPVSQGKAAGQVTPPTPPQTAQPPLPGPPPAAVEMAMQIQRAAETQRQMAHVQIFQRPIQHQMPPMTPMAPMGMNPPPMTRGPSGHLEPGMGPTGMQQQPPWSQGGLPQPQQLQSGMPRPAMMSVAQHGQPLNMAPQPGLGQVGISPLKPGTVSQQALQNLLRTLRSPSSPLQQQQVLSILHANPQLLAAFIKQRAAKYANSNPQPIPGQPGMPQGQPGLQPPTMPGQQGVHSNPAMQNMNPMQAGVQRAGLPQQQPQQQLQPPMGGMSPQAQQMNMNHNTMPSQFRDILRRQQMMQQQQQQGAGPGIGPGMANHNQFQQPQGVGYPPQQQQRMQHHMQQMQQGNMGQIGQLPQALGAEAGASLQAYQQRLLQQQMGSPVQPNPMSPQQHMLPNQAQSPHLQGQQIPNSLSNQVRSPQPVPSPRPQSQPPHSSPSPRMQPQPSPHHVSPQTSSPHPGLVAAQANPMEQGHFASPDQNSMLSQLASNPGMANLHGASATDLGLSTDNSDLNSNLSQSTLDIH
T2 sequence (Q92793 whole entry): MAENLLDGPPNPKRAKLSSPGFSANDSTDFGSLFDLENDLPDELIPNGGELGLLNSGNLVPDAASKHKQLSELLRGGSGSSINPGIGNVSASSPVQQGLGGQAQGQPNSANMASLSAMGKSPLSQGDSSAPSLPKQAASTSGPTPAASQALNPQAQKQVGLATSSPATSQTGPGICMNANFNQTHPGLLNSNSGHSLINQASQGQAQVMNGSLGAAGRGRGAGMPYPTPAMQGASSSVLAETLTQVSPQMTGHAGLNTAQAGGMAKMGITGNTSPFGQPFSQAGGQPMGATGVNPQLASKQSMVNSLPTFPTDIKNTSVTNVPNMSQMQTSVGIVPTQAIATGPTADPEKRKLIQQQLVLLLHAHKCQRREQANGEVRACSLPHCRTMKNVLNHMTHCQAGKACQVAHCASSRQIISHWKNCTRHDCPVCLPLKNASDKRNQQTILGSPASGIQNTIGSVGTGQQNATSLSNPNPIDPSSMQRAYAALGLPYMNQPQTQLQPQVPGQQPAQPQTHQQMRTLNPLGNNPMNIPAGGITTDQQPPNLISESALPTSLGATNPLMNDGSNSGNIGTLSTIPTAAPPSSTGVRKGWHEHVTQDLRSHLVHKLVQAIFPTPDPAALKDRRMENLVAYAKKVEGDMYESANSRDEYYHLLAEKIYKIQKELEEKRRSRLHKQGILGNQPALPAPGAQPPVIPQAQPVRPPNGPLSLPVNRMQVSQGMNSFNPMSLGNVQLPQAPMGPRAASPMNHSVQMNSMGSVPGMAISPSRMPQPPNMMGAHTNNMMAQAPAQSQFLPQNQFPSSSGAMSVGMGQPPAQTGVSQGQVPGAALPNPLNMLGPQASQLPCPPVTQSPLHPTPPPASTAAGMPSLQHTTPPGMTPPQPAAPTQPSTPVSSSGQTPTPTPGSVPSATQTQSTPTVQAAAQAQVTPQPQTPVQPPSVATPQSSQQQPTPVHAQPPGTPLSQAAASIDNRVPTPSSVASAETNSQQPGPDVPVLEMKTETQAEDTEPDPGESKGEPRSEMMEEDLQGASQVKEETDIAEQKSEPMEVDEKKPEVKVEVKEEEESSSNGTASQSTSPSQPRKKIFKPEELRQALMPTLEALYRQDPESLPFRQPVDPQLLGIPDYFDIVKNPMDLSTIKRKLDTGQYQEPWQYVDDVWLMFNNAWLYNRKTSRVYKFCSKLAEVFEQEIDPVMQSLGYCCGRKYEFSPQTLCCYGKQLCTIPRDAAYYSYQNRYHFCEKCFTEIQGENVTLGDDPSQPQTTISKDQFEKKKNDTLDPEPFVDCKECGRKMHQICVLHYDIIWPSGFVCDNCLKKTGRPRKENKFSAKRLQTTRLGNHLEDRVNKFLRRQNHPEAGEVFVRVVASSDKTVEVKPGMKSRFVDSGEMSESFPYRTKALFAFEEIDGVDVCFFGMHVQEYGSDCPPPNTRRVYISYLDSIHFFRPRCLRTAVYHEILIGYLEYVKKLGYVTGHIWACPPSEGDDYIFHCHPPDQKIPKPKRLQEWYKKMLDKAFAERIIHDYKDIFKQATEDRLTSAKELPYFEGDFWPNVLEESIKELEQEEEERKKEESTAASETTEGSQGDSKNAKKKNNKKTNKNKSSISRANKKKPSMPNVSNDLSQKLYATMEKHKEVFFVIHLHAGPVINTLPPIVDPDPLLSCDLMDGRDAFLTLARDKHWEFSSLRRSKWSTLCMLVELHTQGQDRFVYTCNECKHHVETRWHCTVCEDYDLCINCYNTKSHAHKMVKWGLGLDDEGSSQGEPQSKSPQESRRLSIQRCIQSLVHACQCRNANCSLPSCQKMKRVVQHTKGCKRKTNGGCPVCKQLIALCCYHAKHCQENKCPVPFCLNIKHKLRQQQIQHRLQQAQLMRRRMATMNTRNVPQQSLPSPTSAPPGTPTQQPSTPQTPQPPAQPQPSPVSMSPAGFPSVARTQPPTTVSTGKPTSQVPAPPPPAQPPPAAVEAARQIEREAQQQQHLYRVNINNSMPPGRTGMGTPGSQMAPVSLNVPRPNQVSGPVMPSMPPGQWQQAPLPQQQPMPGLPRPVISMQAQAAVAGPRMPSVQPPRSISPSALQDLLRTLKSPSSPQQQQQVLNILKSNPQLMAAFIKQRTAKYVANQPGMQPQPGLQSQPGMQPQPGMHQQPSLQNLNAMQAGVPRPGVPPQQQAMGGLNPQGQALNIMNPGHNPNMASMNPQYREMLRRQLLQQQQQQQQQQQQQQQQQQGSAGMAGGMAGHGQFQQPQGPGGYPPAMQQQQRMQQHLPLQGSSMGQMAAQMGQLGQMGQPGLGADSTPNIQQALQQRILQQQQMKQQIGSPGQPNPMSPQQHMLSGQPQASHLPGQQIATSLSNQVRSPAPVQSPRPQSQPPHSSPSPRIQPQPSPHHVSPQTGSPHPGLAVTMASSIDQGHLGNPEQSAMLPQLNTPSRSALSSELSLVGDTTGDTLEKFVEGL

In general, Kd refers to the free concentration of one partner at which half of the binding sites on the other are occupied at equilibrium, for simple one-to-one binding. Higher therefore signals lower affinity. `Cc1cc2c(NC(=O)c3cc(NC(=O)CCCCCCCN4CCN(c5ccc6c(c5)C(=O)N(C5CCC(=O)NC5=O)C6=O)CC4)cc(-c4ccn(C)n4)c3)cccc2nn1` (stereo not shown) [compound 9]: the Kd in assay [1] worked out at 45 nM; in assay [5], 28 nM. The “% remaining CBP” value in assay [2] is on record as over 95%. Besides, in assay [3], the “% remaining EP300” value was over 95%. In assay [4], the “ternary complex formation in cells with CRBN and CBP-BRD” value is given as “good ternary complex formation”.
As usually defined, the IC50 is the point on the concentration scale where inhibition reaches its midpoint. On to `Cc1cc2c(NC(=O)c3cc(NC(=O)CCCCCCCCCCNc4cccc5c4C(=O)N(C4CCC(=O)N(C)C4=O)C5=O)cc(-c4ccn(C)n4)c3)cccc2nn1` (stereo not shown) [compound 10], for which the “degradation of CBP” value in assay [2] (1 μM) is “abrogated”. In assay [3] (1 μM), the “degradation of EP300” value was “abrogated”. Moreover, in assay [6], the “ternary complex formation (TR-FRET)” value is “did not show cooperativity or ternary complex formation”. Further, the IC50 in assay [7] (absence of CRBN, read-out: CBP-BRD IC50 (binary, IC50[control])) amounted to 220 nM; in assay [7] (presence of high concentrations of CRBN C-terminal thalidomide binding domain, read-out: ternary IC50 (IC50[CRBN])), 230 nM.
Take `Cc1cc2c(NC(=O)c3cc(NC(=O)COCCOCCOCCNc4cccc5c4C(=O)N(C4CCC(=O)NC4=O)C5=O)cc(-c4ccn(C)n4)c3)cccc2nn1` (stereo not shown) [compound 8]: in assay [2], the “% remaining CBP” value was found to be 81%. For the same molecule, in assay [3], the “% remaining EP300” value was 95%.
As for `CC(=O)Nc1cc(C(=O)Nc2cccc3nnc(C)cc23)cc(-c2ccn(C)n2)c1` [compound 3], in assay [1], the Kd is 25 nM and the “LE EP300 (ligand efficiency)” value is recorded as 0.35. In addition, in assay [5], binding was characterised by a dissociation constant (Kd) of 29 nM and the “LE CBP (ligand efficiency)” value turned out to be 0.35.
As to `Cc1cc2c(NC(=O)c3cc(NC(=O)CCCCCCCCCCCNc4cccc5c4C(=O)N(C4CCC(=O)NC4=O)C5=O)cc(-c4ccn(C)n4)c3)cccc2nn1` (stereo not shown) [compound 4], the Kd in assay [1] is over 10000 nM; in assay [5], 3300 nM. Further, in assay [2], the “% remaining CBP” value stood at 21%. For the same molecule, the “% remaining EP300” value in assay [3] was 43%. The “ternary complex formation in cells with CRBN and CBP-BRD” value in assay [4] is “good ternary complex formation”. Further, the “ternary complex formation in cells with CBP catalytic core” value in assay [8] is on record as “able to induce ternary complex formation”.
Regarding `Cc1cc2c(NC(=O)c3cc(NC(=O)CCCCCCCCCCNc4ccc5c(c4)C(=O)N(C4CCC(=O)NC4=O)C5=O)cc(-c4ccn(C)n4)c3)cccc2nn1` (stereo not shown) [compound 7], the “% remaining CBP” value in assay [2] amounted to 30%. The “% remaining EP300” value in assay [3] is given as 69%.
In the case of `Cc1cc2c(NC(=O)c3cc(NC(=O)c4ccco4)cc(-c4ccn(C)n4)c3)cccc2nn1` [compound 2], in assay [1], the Kd came out at 9.9 nM and the “LE EP300 (ligand efficiency)” value is given as 0.33. For the same molecule, in assay [5], the affinity, expressed as Kd, was 8.7 nM and the “LE CBP (ligand efficiency)” value came to 0.33.
As to `CC(=O)Nc1cc(NC(=O)c2ccco2)cc(C(=O)Nc2cccc3nnc(C)cc23)c1` [compound 1], in assay [1], the Kd was 23 nM and the “LE EP300 (ligand efficiency)” value was found to be 0.33. In assay [5], binding was characterised by a dissociation constant (Kd) of 19 nM and the “LE CBP (ligand efficiency)” value was 0.34.
In the case of `Cc1cc2c(NC(=O)c3cc(NC(=O)CCCCCCCCNc4cccc5c4C(=O)N(C4CCC(=O)NC4=O)C5=O)cc(-c4ccn(C)n4)c3)cccc2nn1` (stereo not shown) [compound 6], the “% remaining CBP” value in assay [2] is reported as 83%. In addition, the “% remaining EP300” value in assay [3] is on record as 87%.

The values are drawn from article PMC11423305, “Structure-Based Design of CBP/EP300 Degraders: When Cooperativity Overcomes Affinity” (JACS Au, 2024).
